# Organism: Rattus norvegicus
# Test: Open TG-GATES - Regimen: Single
# Format: toxicity, organism-based, Sprague-Dawley
# Parameters: regimen Single, gender Male, age 6 weeks
# Conditions: in vivo, po, 1000 mg/kg, route gavage, dose level High; for APTT / Bas / Eos / Fbg / Hb / Ht / Lym / MCH / MCHC / MCV / Mono / Neu / PT / Plat / RBC / Ret / WBC: tissue Blood; for KIDNEY_L / KIDNEY_R / KIDNEY_TOTAL: tissue Kidney; for LIVER: tissue Liver; for A/G / ALP / ALT / AST / BUN / CRE / Ca / Cl / DBIL / GLC / IP / K / LDH / Na / PL / RALB / TBIL / TC / TG / TP / gamma-GTP: tissue Plasma
smiles,measurement,setting,value
CC(C)(S)[C@@H](N)C(=O)O [PENICILLAMINE],TERMINAL_BW,3 h,206.7 g
same,APTT,3 h,16.4 s
same,Bas,3 h,0%
same,Eos,3 h,1%
same,Fbg,3 h,281.4 mg/dL
same,Hb,3 h,13.2 g/dL
same,Ht,3 h,40.7%
same,Lym,3 h,77%
same,MCH,3 h,20.5 pg
same,MCHC,3 h,32.3%
same,MCV,3 h,63.4 fL
same,Mono,3 h,3.2%
same,Neu,3 h,18.4%
same,PT,3 h,15.6 s
same,Plat,3 h,128.4 x10_4/uL
same,RBC,3 h,642.8 x10_4/ul
same,Ret,3 h,9.2%
same,WBC,3 h,83.2 x10_2/uL
same,KIDNEY_L,3 h,0.9 g
same,KIDNEY_R,3 h,0.9 g
same,KIDNEY_TOTAL,3 h,1.8 g
same,LIVER,3 h,8.6 g
same,A/G,3 h,0.9
same,ALP,3 h,756.4 IU/L
same,ALT,3 h,41.8 IU/L
same,AST,3 h,75.6 IU/L
same,BUN,3 h,9 mg/dL
same,CRE,3 h,0.2 mg/dL
same,Ca,3 h,10.7 mg/dL
same,Cl,3 h,104.6 meq/L
same,DBIL,3 h,0.01 mg/dL
same,GLC,3 h,187 mg/dL
same,IP,3 h,8.3 mg/dL
same,K,3 h,4.3 meq/L
same,LDH,3 h,74 IU/L
same,Na,3 h,141.4 meq/L
same,PL,3 h,141 mg/dL
same,RALB,3 h,2.5 g/dL
same,TBIL,3 h,0.032 mg/dL
same,TC,3 h,78 mg/dL
same,TG,3 h,67.2 mg/dL
same,TP,3 h,5.1 g/dL
same,gamma-GTP,3 h,1.2 IU/L
same,TERMINAL_BW,6 h,203.8 g
same,APTT,6 h,16.5 s
same,Bas,6 h,0%
same,Eos,6 h,0.6%
same,Fbg,6 h,314 mg/dL
same,Hb,6 h,13.2 g/dL
same,Ht,6 h,41%
same,Lym,6 h,71.8%
same,MCH,6 h,20.8 pg
same,MCHC,6 h,32.1%
same,MCV,6 h,64.7 fL
same,Mono,6 h,4.2%
same,Neu,6 h,22.2%
same,PT,6 h,14.8 s
same,Plat,6 h,126.9 x10_4/uL
same,RBC,6 h,635.2 x10_4/ul
same,Ret,6 h,9.5%
same,WBC,6 h,86.9 x10_2/uL
same,KIDNEY_L,6 h,0.9 g
same,KIDNEY_R,6 h,0.9 g
same,KIDNEY_TOTAL,6 h,1.8 g
same,LIVER,6 h,8 g
same,A/G,6 h,1
same,ALP,6 h,741.6 IU/L
same,ALT,6 h,35.8 IU/L
same,AST,6 h,70.8 IU/L
same,BUN,6 h,8 mg/dL
same,CRE,6 h,0.2 mg/dL
same,Ca,6 h,10.6 mg/dL
same,Cl,6 h,105.4 meq/L
same,DBIL,6 h,0.004 mg/dL
same,GLC,6 h,173.6 mg/dL
same,IP,6 h,9.3 mg/dL
same,K,6 h,4.2 meq/L
same,LDH,6 h,80.8 IU/L
same,Na,6 h,141.4 meq/L
same,PL,6 h,134.6 mg/dL
same,RALB,6 h,2.5 g/dL
same,TBIL,6 h,0.028 mg/dL
same,TC,6 h,79.8 mg/dL
same,TG,6 h,31.4 mg/dL
same,TP,6 h,5.2 g/dL
same,gamma-GTP,6 h,1 IU/L
same,TERMINAL_BW,9 h,203.4 g
same,APTT,9 h,16.5 s
same,Bas,9 h,0%
same,Eos,9 h,1%
same,Fbg,9 h,294.2 mg/dL
same,Hb,9 h,13 g/dL
same,Ht,9 h,40.6%
same,Lym,9 h,73.6%
same,MCH,9 h,20.2 pg
same,MCHC,9 h,32.2%
same,MCV,9 h,62.9 fL
same,Mono,9 h,3.2%
same,Neu,9 h,21.6%
same,PT,9 h,15.4 s
same,Plat,9 h,116 x10_4/uL
same,RBC,9 h,645 x10_4/ul
same,Ret,9 h,9%
same,WBC,9 h,82.2 x10_2/uL
same,KIDNEY_L,9 h,1 g
same,KIDNEY_R,9 h,0.9 g
same,KIDNEY_TOTAL,9 h,1.9 g
same,LIVER,9 h,7.6 g
same,A/G,9 h,1
same,ALP,9 h,664.8 IU/L
same,ALT,9 h,31.4 IU/L
same,AST,9 h,65.4 IU/L
same,BUN,9 h,7.8 mg/dL
same,CRE,9 h,0.2 mg/dL
same,Ca,9 h,10.5 mg/dL
same,Cl,9 h,107 meq/L
same,DBIL,9 h,0.01 mg/dL
same,GLC,9 h,177 mg/dL
same,IP,9 h,10.2 mg/dL
same,K,9 h,4.3 meq/L
same,LDH,9 h,67.4 IU/L
same,Na,9 h,142.6 meq/L
same,PL,9 h,127 mg/dL
same,RALB,9 h,2.5 g/dL
same,TBIL,9 h,0.036 mg/dL
same,TC,9 h,73.2 mg/dL
same,TG,9 h,21.4 mg/dL
same,TP,9 h,5.1 g/dL
same,gamma-GTP,9 h,0.8 IU/L
same,TERMINAL_BW,24 h,215.2 g
same,APTT,24 h,16.2 s
same,Bas,24 h,0%
same,Eos,24 h,1.2%
same,Fbg,24 h,291 mg/dL
same,Hb,24 h,13.4 g/dL
same,Ht,24 h,41.2%
same,Lym,24 h,75.4%
same,MCH,24 h,20.8 pg
same,MCHC,24 h,32.4%
same,MCV,24 h,64.2 fL
same,Mono,24 h,3.2%
same,Neu,24 h,19.8%
same,PT,24 h,14.2 s
same,Plat,24 h,116.1 x10_4/uL
same,RBC,24 h,642.2 x10_4/ul
same,Ret,24 h,7.1%
same,WBC,24 h,85.6 x10_2/uL
same,KIDNEY_L,24 h,0.9 g
same,KIDNEY_R,24 h,0.9 g
same,KIDNEY_TOTAL,24 h,1.9 g
same,LIVER,24 h,9.8 g
same,A/G,24 h,0.9
same,ALP,24 h,1271.2 IU/L
same,ALT,24 h,47.8 IU/L
same,AST,24 h,68 IU/L
same,BUN,24 h,14.6 mg/dL
same,CRE,24 h,0.2 mg/dL
same,Ca,24 h,11 mg/dL
same,Cl,24 h,105.2 meq/L
same,DBIL,24 h,0.012 mg/dL
same,GLC,24 h,176 mg/dL
same,IP,24 h,9 mg/dL
same,K,24 h,4.1 meq/L
same,LDH,24 h,86.8 IU/L
same,Na,24 h,143.8 meq/L
same,PL,24 h,155.6 mg/dL
same,RALB,24 h,2.6 g/dL
same,TBIL,24 h,0.028 mg/dL
same,TC,24 h,85 mg/dL
same,TG,24 h,85.2 mg/dL
same,TP,24 h,5.4 g/dL
same,gamma-GTP,24 h,0.8 IU/L

# From ChEMBL document CHEMBL3885861, “Open TG-GATES”
